# Key:
# [1] = tested on: antibody producing CHO cells; assay: 2-liter stirred bioreactor fed-batch cell culture in basal Media 1/feed Media 2 supplemented with hypotaurine or analog; type: cell-based, Chinese hamster; settings: for cell growth as measured by VCC: 12.95 mM hypotaurine or 10 mM carboxymethylcysteine in Media 1, 2 L bioreactor (FIG. 7A); for cell viability: 12.95 mM hypotaurine or 10 mM carboxymethylcysteine in Media 1, 2 L bioreactor (FIG. 7B); for antibody production (antibody titer by HPLC): 12.95 mM hypotaurine or 10 mM carboxymethylcysteine in Media 1, 2 L bioreactor (FIG. 8); for color intensity reduction of isolated antibody composition, specific color assay / color intensity reduction of isolated antibody composition, second color assay: 12.95 mM hypotaurine or 10 mM carboxymethylcysteine in Media 1, protein A pool 150 g/L; for color intensity reduction of isolated antibody composition, specific color assay: vs positive control (FIG. 9A); for color intensity reduction of isolated antibody composition, second color assay: vs positive control (FIG. 9B)
# Procedure: Antibody producing CHO cells were inoculated at approximately 1.0×10^6 cells/mL in 2-liter stirred bioreactors (Applikon, Foster City, Calif.) containing 1 L of basal Media 1 supplemented with 12.95 mM hypotaurine or 10 mM carboxymethylcysteine (CAS number 638-23-3). Cells were cultured in fed-batch mode with addition of 100 mL of feed Media 2 per liter of cell culture fluid at days 3, 6 and 9 for initiation of the production phase. A positive control was included by culturing cells in Media 1 and 2 without hypotaurine supplementation. The concentration of glucose was analyzed every day and if the glucose concentration fell below 2 g/L, it was replenished from a […] stock solution of glucose for prevention of glucose depletion. Reactors were equipped with calibrated dissolved oxygen, pH and temperature probes. Dissolved oxygen was controlled on-line through sparging with air and/or oxygen. pH was controlled through addition of CO2 or Na2CO3 and antifoam was added to the cultures as needed. The cell cultures were maintained at pH 7.0 and a temperature of 37° C. from days 0 through 3, and then at 35° C. after day 3. The cell cultures were agitated at 275 rpm and the dissolved oxygen level was at 30% of air saturation. Osmolality was monitored using an osmometer from Advanced Instruments (Norwood, Mass.). Offline pH and metabolite concentrations were also determined daily using a Nova Bioprofile 400 (Nova Biomedical, Waltham, Mass.). VCC and cell viability was measured daily using a ViCell® automated cell counter (Beckman Coulter, Fullerton, Calif.). The cell culture fluid was collected daily by centrifuging 1 mL of cell culture fluid for determination of antibody titer using high performance liquid chromatography. At the end of the cell culture duration on day 14, when the amount of protein in the culture was approximately 2-10 g/L, the cell culture fluid from all samples was harvested by centrifugation. The monoclonal antibody in the harvested cell culture fluid was purified using protein A affinity chromatography. The protein A pool was concentrated to 150 g/L using Amicon Centricon centrifugal filter devices (Millipore Corporation, Billerica, Mass.). Color intensity of the concentrated antibody composition was measured in the concentrated protein A pool using two different assays wherein higher numerical values indicated higher color intensity and lower numerical values indicated lower color intensity. […] This color intensity reduction was confirmed by using a second color assay which detected an approximate 17% and 13% color intensity reduction in antibody compositions isolated from cell cultured in media supplemented with hypotaurine and carboxymethylcysteine, respectively (FIG. 9B).
# IgG1 monoclonal antibody = assay: Antioxidant incubation screening: color intensity of antibody composition after incubation in Media 1/Media 2 mixture; settings: 1X test concentration in Media 1 + Media 2 mixture, 2 g/L IgG1 mAb, 5 days 37° C.; normalized to positive control (0% change)
# Procedure: For antioxidant screening, a total volume of 40 ml media was prepared by mixing 1 part basal Media 1 and 0.3 part feed Media 2 to mirror a representative ratio of media used in cell culture conditions (Table 5). […] The samples were incubated at 37° C. with shaking at 250 rpm for a five day incubation period.
# After incubation, the monoclonal antibody was purified using protein A affinity chromatography. The pool was concentrated to 150 g/L using Amicon Centricon centrifugal filter devices (Millipore Corporation, Billerica, Mass.). Color intensity of the concentrated antibody composition was measured in the concentrated protein A pool using an assay wherein higher numerical values indicate higher color intensity and lower numerical values indicate lower color intensity. The numerical results were normalized to the positive control, where the value for the positive control was set at 0% change in color intensity.
# [2] = listed as carboxy methyl cysteine
Structure (SMILES),cell growth as measured by VCC [1],"cell growth as measured by VCC [1, 2]",cell viability [1],"cell viability [1, 2]",antibody production (antibody titer by HPLC) [1],"antibody production (antibody titer by HPLC) [1, 2]","color intensity reduction of isolated antibody composition, specific color assay [1]","color intensity reduction of isolated antibody composition, second color assay [1]",reduction of color intensity of the antibody-containing compositions (IgG1 monoclonal antibody)
"N[C@@H](CSCC(=O)O)C(=O)O [carboxymethylcysteine, (2R)-2-amino-3-[(carboxymethyl)sulfanyl]propanoic acid]",comparable,did not compromise,comparable,did not compromise,comparable levels of antibody titers,did not significantly reduce,13%,~13%,–
"NCCS(=O)(=O)O [Taurine, 2-aminoethane-1-sulfonic acid]",–,–,–,–,–,–,–,–,approximately 5%
"NCCS(=O)O [hypotaurine, 2-aminoethane-1-sulfinate]",–,–,–,–,–,–,27%,~17%,–

# From patent publication US10676710B2, “Cell culture compositions with antioxidants and methods for polypeptide production” (Genentech, Inc., priority 2013, dated 2020)
